Test results: ChEMBL document CHEMBL1201861, “Genomics of Drug Sensitity in Cancer screening data, Wellcome Trust Sanger Institute”

Experiments:
Assay in all cases: cells
Assay type in all cases: functional, cell-based, Homo sapiens
CW-2 = details: Homo sapiens, CW-2;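 also: growth inhibition of CW-2 cells, read out by a cell viability assay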
Description: SANGER: Inhibition of human CW-2 cell growth in a cell viability assay.

ES4 = details: Homo sapiens, ES4;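 also: growth inhibition of human ES4 cells, read out by a cell viability assay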
Description: SANGER: Inhibition of human ES4 cell growth in a cell viability assay.

ES5 = details: Homo sapiens, ES5;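 also: growth inhibition of human ES5 cells, read out by a cell viability assay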
Description: SANGER: Inhibition of human ES5 cell growth in a cell viability assay.

ES6 = details: Homo sapiens, ES6;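 also: growth inhibition of human ES6 cells, read out with a cell viability assay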
Description: SANGER: Inhibition of human ES6 cell growth in a cell viability assay.

ES7 = details: Homo sapiens, ES7;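 also: growth inhibition of cultured human ES7 cells, read out as cell viability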
Description: SANGER: Inhibition of human ES7 cell growth in a cell viability assay.

GI-ME-N = details: Homo sapiens, GI-ME-N;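 also: growth inhibition of human GI-ME-N cells, read out with a cell viability assay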
Description: SANGER: Inhibition of human GI-ME-N cell growth in a cell viability assay.

JVM-2 = details: Homo sapiens, JVM-2;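 also: growth inhibition of JVM-2 cells determined by a cell viability assay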
Description: SANGER: Inhibition of human JVM-2 cell growth in a cell viability assay.

JVM-3 = details: Homo sapiens, JVM-3;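 also: growth inhibition of human JVM-3 cells, read out with a cell viability assay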
Description: SANGER: Inhibition of human JVM-3 cell growth in a cell viability assay.

K562 = details: Homo sapiens, K562
Description: SANGER: Inhibition of human K-562 cell growth in a cell viability assay.

KALS-1 = details: Homo sapiens, KALS-1;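 also: growth inhibition of KALS-1 cells, determined with a cell viability assay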
Description: SANGER: Inhibition of human KALS-1 cell growth in a cell viability assay.

KARPAS-299 = details: Homo sapiens, KARPAS-299
Description: SANGER: Inhibition of human KARPAS-299 cell growth in a cell viability assay.

KARPAS-45 = details: Homo sapiens, KARPAS-45;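 also: inhibition of cell line growth, read out through a viability assay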
Description: SANGER: Inhibition of human KARPAS-45 cell growth in a cell viability assay.

KE-37 = details: Homo sapiens, KE-37;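 also: growth inhibition of KE-37 cells, read out with a cell viability assay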
Description: SANGER: Inhibition of human KE-37 cell growth in a cell viability assay.

KG-1 = details: Homo sapiens, KG-1;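 also: growth inhibition of KG-1 cells, read out by a cell viability assay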
Description: SANGER: Inhibition of human KG-1 cell growth in a cell viability assay.

KGN = details: Homo sapiens, KGN;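 also: growth inhibition of KGN cells, read out with a cell viability assay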
Description: SANGER: Inhibition of human KGN cell growth in a cell viability assay.

KINGS-1 = details: Homo sapiens, KINGS-1;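 also: cell viability assay measuring suppression of KINGS-1 cell growth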
Description: SANGER: Inhibition of human KINGS-1 cell growth in a cell viability assay.

KY821 = details: Homo sapiens, KY821;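 also: growth inhibition of human KY821 cells, read out by a cell viability assay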
Description: SANGER: Inhibition of human KY821 cell growth in a cell viability assay.

LB831-BLC = details: Homo sapiens, LB831-BLC;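 also: growth inhibition of LB831-BLC cells, read out with a cell viability assay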
Description: SANGER: Inhibition of human LB831-BLC cell growth in a cell viability assay.

LC-2-ad = details: Homo sapiens, LC-2-ad;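 also: growth inhibition of human LC-2-ad cells, read out with a cell viability assay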
Description: SANGER: Inhibition of human LC-2-ad cell growth in a cell viability assay.

LS-411N = details: Homo sapiens, LS-411N
LS-513 = details: Homo sapiens, LS-513
Description: SANGER: Inhibition of human LS-513 cell growth in a cell viability assay.

Lu-65 = details: Homo sapiens, Lu-65;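 also: growth inhibition of Lu-65 cancer cells, read out by a cell viability assay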
Description: SANGER: Inhibition of human LU-65 cell growth in a cell viability assay.

MOLT-16 = details: Homo sapiens, MOLT-16;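 also: growth inhibition of human MOLT-16 cells, read out with a cell viability assay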
Description: SANGER: Inhibition of human MOLT-16 cell growth in a cell viability assay.

MZ2-MEL = details: Homo sapiens, MZ2-MEL;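 also: growth inhibition of MZ2-MEL cells read out with a cell viability assay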
Description: SANGER: Inhibition of human MZ2-MEL cell growth in a cell viability assay.

NB10 = details: Homo sapiens, NB10;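 also: growth inhibition of NB10 cells, read out by a cell viability assay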
Description: SANGER: Inhibition of human NB10 cell growth in a cell viability assay.

NCI-H1581 = details: Homo sapiens, NCI-H1581;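 also: cell growth inhibition read out by a viability assay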
Description: SANGER: Inhibition of human NCI-H1581 cell growth in a cell viability assay.

NCI-H1648 = details: Homo sapiens, NCI-H1648;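 also: cell viability assay measuring inhibition of NCI-H1648 cell growth, from the Sanger screening data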
Description: SANGER: Inhibition of human NCI-H1648 cell growth in a cell viability assay.

NCI-H1650 = details: Homo sapiens, NCI-H1650;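 also: growth inhibition of human NCI-H1650 cells measured by a cell viability assay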
Description: SANGER: Inhibition of human NCI-H1650 cell growth in a cell viability assay.

NCI-H446 = details: Homo sapiens, NCI-H446;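 also: growth inhibition of NCI-H446 cells determined by a cell viability assay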
Description: SANGER: Inhibition of human NCI-H446 cell growth in a cell viability assay.

NCI-N87 = details: Homo sapiens, NCI-N87;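 also: growth inhibition of human NCI-N87 cells, read out with a cell viability assay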
Description: SANGER: Inhibition of human NCI-N87 cell growth in a cell viability assay.

NEC8 = details: Homo sapiens, NEC8;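 also: growth inhibition of human NEC8 cells, read out by a cell viability assay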
Description: SANGER: Inhibition of human NEC8 cell growth in a cell viability assay.

NMC-G1 = details: Homo sapiens, NMC-G1;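 also: growth inhibition of the NMC-G1 cell line, measured with a cell viability read-out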
Description: SANGER: Inhibition of human NMC-G1 cell growth in a cell viability assay.

NOMO-1 = details: Homo sapiens, NOMO-1;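 also: growth inhibition of human NOMO-1 cells measured by a cell viability assay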
Description: SANGER: Inhibition of human NOMO-1 cell growth in a cell viability assay.

NOS-1 = details: Homo sapiens, NOS-1;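 also: growth inhibition of the human NOS-1 cell line, read out with a cell viability assay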
Description: SANGER: Inhibition of human NOS-1 cell growth in a cell viability assay.

P30-OHK = details: Homo sapiens, P30-OHK;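 also: growth inhibition of the P30-OHK cell line, read out with a cell viability assay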
Description: SANGER: Inhibition of human P30-OHK cell growth in a cell viability assay.

PSN1 = details: Homo sapiens, PSN1;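 also: suppression of growth of human PSN1 cells, read out by a cell viability assay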
Description: SANGER: Inhibition of human PSN1 cell growth in a cell viability assay.

RKO = details: Homo sapiens, RKO;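 also: growth inhibition of human RKO cells, read out with a cell viability assay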
Description: SANGER: Inhibition of human RKO cell growth in a cell viability assay.

RPMI-8226 = details: Homo sapiens, RPMI-8226
Description: SANGER: Inhibition of human RPMI-8226 cell growth in a cell viability assay.

SBC-1 = details: Homo sapiens, SBC-1;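 also: cell viability assay measuring growth inhibition of the SBC-1 cell line, IC50 being the concentration that halves growth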
Description: SANGER: Inhibition of human SBC-1 cell growth in a cell viability assay.

SCH = details: Homo sapiens, SCH;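 also: growth inhibition of human SCH cells, read out in a cell viability assay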
Description: SANGER: Inhibition of human SCH cell growth in a cell viability assay.

SW684 = details: Homo sapiens, SW684;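 also: growth inhibition of human SW684 cells, measured by a cell viability assay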
Description: SANGER: Inhibition of human SW684 cell growth in a cell viability assay.

SW872 = details: Homo sapiens, SW872;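 also: growth inhibition of SW872 cells, read out by a viability assay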
Description: SANGER: Inhibition of human SW872 cell growth in a cell viability assay.

A101D = details: Homo sapiens, A101D;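 also: growth inhibition of the cell line, measured with a viability assay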
Description: SANGER: Inhibition of human A101D cell growth in a cell viability assay.

ACN = details: Homo sapiens, ACN;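 also: growth inhibition of the human ACN cell line, read out via cell viability testing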
Description: SANGER: Inhibition of human ACN cell growth in a cell viability assay.

BT-474 = details: Homo sapiens, BT-474
Description: SANGER: Inhibition of human BT-474 cell growth in a cell viability assay.

TE-10 = details: Homo sapiens, TE-10;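 also: growth inhibition of TE-10 cells, measured by a cell viability assay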
Description: SANGER: Inhibition of human TE-10 cell growth in a cell viability assay.

TE-11 = details: Homo sapiens, TE-11;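 also: growth inhibition of human TE-11 cells, read out by a cell viability assay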
Description: SANGER: Inhibition of human TE-11 cell growth in a cell viability assay.

TK-10 = details: Homo sapiens, TK-10;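 also: growth inhibition of TK-10 cells, read out in a cell viability assay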
Description: SANGER: Inhibition of human TK10 cell growth in a cell viability assay.

SMILES: COc1cc2c(Nc3ccc(NC(=O)c4ccccc4)cc3)ncnc2cc1OCCCN1CCOCC1
- IC50 (CW-2): > 4000 nM
- IC50 (ES4): > 4000 nM
- IC50 (ES5): 1000 nM
- IC50 (ES6): > 4000 nM
- IC50 (ES7): > 4000 nM
- IC50 (GI-ME-N): > 4000 nM
- IC50 (JVM-2): > 4000 nM
- IC50 (JVM-3): 2750 nM
- IC50 (K562): > 4000 nM
- IC50 (KALS-1): > 4000 nM
- IC50 (KARPAS-299): > 4000 nM
- IC50 (KARPAS-45): 381 nM
- IC50 (KE-37): 1210 nM
- IC50 (KG-1): 3200 nM
- IC50 (KGN): > 4000 nM
- IC50 (KINGS-1): > 4000 nM
- IC50 (KY821): > 4000 nM
- IC50 (LB831-BLC): > 4000 nM
- IC50 (LC-2-ad): > 4000 nM
- IC50 (LS-411N): > 4000 nM
- IC50 (LS-513): > 4000 nM
- IC50 (Lu-65): > 4000 nM
- IC50 (MOLT-16): 610 nM
- IC50 (MZ2-MEL): > 4000 nM
- IC50 (NB10): > 4000 nM
- IC50 (NCI-H1581): 1680 nM
- IC50 (NCI-H1648): > 4000 nM
- IC50 (NCI-H1650): > 4000 nM
- IC50 (NCI-H446): > 4000 nM
- IC50 (NCI-N87): > 4000 nM
- IC50 (NEC8): > 4000 nM
- IC50 (NMC-G1): > 4000 nM
- IC50 (NOMO-1): 1370 nM
- IC50 (NOS-1): > 4000 nM
- IC50 (P30-OHK): > 4000 nM
- IC50 (PSN1): > 4000 nM
- IC50 (RKO): 707 nM
- IC50 (RPMI-8226): > 4000 nM
- IC50 (SBC-1): 1040 nM
- IC50 (SCH): > 4000 nM
- IC50 (SW684): > 4000 nM
- IC50 (SW872): > 4000 nM
- IC50 (A101D): > 4000 nM
- IC50 (ACN): > 4000 nM
- IC50 (BT-474): > 4000 nM
- IC50 (TE-10): > 4000 nM
- IC50 (TE-11): 537 nM
- IC50 (TK-10): > 4000 nM

SMILES: CC1(C)CNc2cc(NC(=O)c3cccnc3NCc3ccncc3)ccc21 [MOTESANIB]
- IC50 (CW-2): > 2000 nM
- IC50 (ES4): > 2000 nM
- IC50 (ES5): > 2000 nM
- IC50 (ES6): > 2000 nM
- IC50 (ES7): > 2000 nM
- IC50 (GI-ME-N): > 2000 nM
- IC50 (JVM-2): > 2000 nM
- IC50 (JVM-3): > 2000 nM
- IC50 (K562): > 2000 nM
- IC50 (KALS-1): > 2000 nM
- IC50 (KARPAS-299): > 2000 nM
- IC50 (KARPAS-45): > 2000 nM
- IC50 (KE-37): > 2000 nM
- IC50 (KG-1): > 2000 nM
- IC50 (KGN): > 2000 nM
- IC50 (KINGS-1): > 2000 nM
- IC50 (KY821): > 2000 nM
- IC50 (LB831-BLC): > 2000 nM
- IC50 (LC-2-ad): > 2000 nM
- IC50 (LS-411N): > 2000 nM
- IC50 (LS-513): > 2000 nM
- IC50 (Lu-65): > 2000 nM
- IC50 (MOLT-16): > 2000 nM
- IC50 (MZ2-MEL): > 2000 nM
- IC50 (NB10): > 2000 nM
- IC50 (NCI-H1581): > 2000 nM
- IC50 (NCI-H1648): 686 nM
- IC50 (NCI-H1650): > 2000 nM
- IC50 (NCI-H446): > 2000 nM
- IC50 (NCI-N87): > 2000 nM
- IC50 (NEC8): > 2000 nM
- IC50 (NMC-G1): > 2000 nM
- IC50 (NOMO-1): > 2000 nM
- IC50 (NOS-1): > 2000 nM
- IC50 (P30-OHK): > 2000 nM
- IC50 (PSN1): > 2000 nM
- IC50 (RKO): > 2000 nM
- IC50 (RPMI-8226): > 2000 nM
- IC50 (SBC-1): > 2000 nM
- IC50 (SCH): > 2000 nM
- IC50 (SW684): > 2000 nM
- IC50 (SW872): > 2000 nM
- IC50 (A101D): > 2000 nM
- IC50 (ACN): > 2000 nM
- IC50 (BT-474): > 2000 nM
- IC50 (TE-10): > 2000 nM
- IC50 (TE-11): > 2000 nM
- IC50 (TK-10): > 2000 nM
